Data set [1] deals with human umbilical vein endothelial cells (HUVEC). Put plainly: Impedimetric measurement (xCELLigence SP), delta slope, HUVEC. The conditions noted are these: for delta slope (DS), short-term / delta slope (DS), long-term: HUVEC, three parallels; for delta slope (DS), short-term: 0–2 h; for delta slope (DS), long-term: 0–72 h; for cytotoxic effect on HUVEC, result in words: long-term (0–72 h), 10^−8–10^−6 mol/L, impedimetry, one-way ANOVA. The source says: (§1) The main objective of the study reported here was to evaluate the in vitro cardiotoxic effects (as undesired side effects) of […] GnRH-III-based conjugates containing doxorubicin, daunorubicin and methotrexate on two essential target cells of cardiovascular diseases: vascular endothelial cells and cardiomyocytes. The rate of cytotoxicity (antitumor effect) vs cardiotoxicity (toxic effects on cardiomyocytes and vascular endothelium) is an important factor for efficient drug development for targeted tumor therapy with minimized side effects. The technique used in this work – impedimetry – is a dedicated one for real-time monitoring of cells to distinguish short-term (0–2 hours) and long-term (0–72 hours) effects elicited by the drug or carrier–drug conjugates. The basic theory of impedimetry is that proliferation/viability of cells is well detectable by monitoring of the electric impedance (Z) in an AC environment, due to the electric insulator character of intact surface membranes composed of the phospholipid bilayer. […] While cell physiological responses of short-term exposures result in characteristic changes of cell morphology (e.g., spreading), long-term effects characteristically influence in particular the proliferation of cells, and therefore the cytotoxic effects. The presented dimensionless values of delta slope (DS) measure the difference between the slope of the curve corresponding to the treatment and that of the control curve in impedimetric recordings, the negative signs refer to the relative values to the identical control.
(§2) Experimental part – Cellular samples
(§3) In the present study, GnRH conjugates containing anti-tumour drugs (e.g., daunorubicin, doxorubicin) were investigated in order to evaluate whether the conjugates exert a decrease cardiotoxic effect compared to that of the free drugs. The cardiac myocytes and the vascular endothelium cells are the most frequently detected target cells of antitumor compounds and they are employed in our study. Human umbilical vein endothelial cells (HUVEC; Promocell, Biomedica, Wien, Austria) were cultured in Endothelial Cell Growth Medium with Endothelial Cell Growth Supplement Mix (Promocell, Biomedica, Wien, Austria) and 100 µg/mL penicillin/streptomycin. Primary human cardiac myocytes (HCM; Promocell, Biomedica, Wien, Austria) were cultured in Myocyte Growth Medium (Promocell, Biomedica, Wien, Austria).
(§4) Impedimetric measurements
(§5) The xCELLigence SP system was used for impedimetric measurements. The bottom of the wells of a 96-well E-plate is installed with a golden electrode array that constitutes the adhesion surface. Adhering cells – acting as insulators – change the electric impedance measured on the electrodes. The measured impedance change is in direct correlation with the number of adhering cells and the extent of adhesion. The results of impedance change are given in the form of Cell Index (CI) calculated by the xCELLigence system according to the […]
(§6) where Zt is the measured impedance in a time point, Zb is the background impedance and F is an inbuilt factor (F = 15 at 10 kHz) depending on the frequency of the alternating current. The measurements took place in an incubator holding a 37 °C temperature and 5% carbon-dioxide […]
(§7) The experiments started with a measurement of baseline impedance for 1 hour. After that, the cells (10^4 cells/well) were added to the wells and allowed to adhere to the electrodes. When the adhering cells reached a balanced state in the wells, signified by the impedance curves […]
(§8) free drugs at 10−12 – 10−6 M and the conjugates at 10−8 – 10−6 M final concentrations were […]
(§9) added to the wells. The changes in impedance were measured for at least 72 hours. For each measurement three parallels were measured.
(§10) The evaluation of responses followed the previously described strategy: acute effects of compounds were evaluated as a characteristic morphology of the curves in the 0–2 hours

The test system of data set [2] is HT-29 human colon adenocarcinoma cells. The conditions noted are these: MTT assay; cited from earlier work. The source says:
(§11) Table 1 Comparative study of cytotoxic effects and cardiotoxicity elicited by GnRH-based antitumor compounds (1–15) and reference substances (AN-152, Dox, Dau, Mtx). IC50 values show antitumor cytotoxic characteristics of the conjugates in human breast cancer (MCF-7), human colorectal adenocarcinoma (HT-29) and human acute monocytic leukemia (MM6) derived cell lines as representative tumor cells.

Data set [3] deals with MCF-7 human breast adenocarcinoma cells. The conditions noted are these: MTT assay; cited from earlier work.
Description: as §11

Data set [4] deals with human acute monocytic leukemia (MonoMac6) cells. The conditions noted are these: cited from earlier work.
Description: as §11

In data set [5] the test system is primary human cardiac myocytes (HCM). The conditions noted are these: for delta slope (DS), short-term / delta slope (DS), long-term: HCM, three parallels; for delta slope (DS), short-term: 0–2 h; for delta slope (DS), long-term: 0–72 h.
Description: as §1, §2, §3, §4, §5, §6, §7, §8, §9, §10

Where [6] appears, read: grade +++/++/+/0, key not given, summary of impedimetric cytotoxicity.

Read-outs that look alike come from different tables or passages of the source.

Regarding GnRH-III(Dox-O-glut) [conjugate 1], the “delta slope (DS), short-term” value in data set [1] (Table S2a, 10^-6 mol/L) is 0.038; in data set [1] (Table S2a, 10^-7 mol/L) it was 0.016; in data set [1] (Table S2a, 10^-8 mol/L), -0.011; in data set [5] (Table S2b, 10^-6 mol/L) it was 0.012; in data set [5] (Table S2b, 10^-7 mol/L) it was 0.002; in data set [5] (Table S2b, 10^-8 mol/L), 0.001. Also, the “delta slope (DS), long-term” value in data set [1] (Table S2a, 10^-6 mol/L, listed as 1) is -0.054; in data set [1] (Table S2a, 10^-6 mol/L, listed as GnRH-III(Dox-O-glut)) it was −0.054; in data set [1] (Table S2a, 10^-7 mol/L, listed as 1) it was -0.028; in data set [1] (Table S2a, 10^-7 mol/L, listed as GnRH-III(Dox-O-glut)), −0.028; in data set [1] (Table S2a, 10^-8 mol/L), -0.003; in data set [5] (Table S2b, 10^-6 mol/L) it was −0.025. In addition, the “delta slope (DS), long-term” value in data set [5] (Table S2b, 10^-8 mol/L) was −0.002. The IC50 in data set [2] was 2.4 ± 0.2 µM; in data set [3] it was 0.1 ± 0.1 µM; in data set [4] it was 0.039 ± 0.01 µM.
“{GnRH-III(Dau=Aoa-YRRL-C)}2 [conjugate 11]”: the “delta slope (DS), short-term” value is listed as 0.014 in data set [1] (Table S4a, 10^-6 mol/L); 0.002 in data set [1] (Table S4a, 10^-7 mol/L); 0.022 in data set [1] (Table S4a, 10^-8 mol/L); -0.004 in data set [5] (Table S4b, 10^-6 mol/L); -0.001 in data set [5] (Table S4b, 10^-7 mol/L); -0.001 in data set [5] (Table S4b, 10^-8 mol/L). Besides, the “delta slope (DS), long-term” value is −0.017 in data set [1] (Table S4a, 10^-6 mol/L); −0.005 in data set [1] (Table S4a, 10^-7 mol/L); 0.001 in data set [1] (Table S4a, 10^-8 mol/L); −0.004 in data set [5] (Table S4b, 10^-6 mol/L); -0.002 in data set [5] (Table S4b, 10^-7 mol/L); -0.001 in data set [5] (Table S4b, 10^-8 mol/L). The half-inhibitory concentration (IC50) in data set [4] was 0.42 ± 0.05 µM.
For `CN(Cc1cnc2nc(N)nc(N)c2n1)c1ccc(C(=O)N[C@@H](CCC(=O)O)C(=O)O)cc1` [methotrexate], the “Cardiotoxicity, HUVEC” value in data set [1] is recorded as “+”. The “delta slope (DS), short-term” value in data set [1] (Table S1a, 10^-6 mol/L) was found to be 0.001; in data set [1] (Table S1a, 10^-7 mol/L) it was 0.002; in data set [1] (Table S1a, 10^-8 mol/L), 0.013; in data set [1] (Table S1a, 10^-9 mol/L) it was 0.019; in data set [1] (Table S1a, 10^-10 mol/L), 0.012; in data set [1] (Table S1a, 10^-11 mol/L), 0.013. For the same molecule, the “delta slope (DS), short-term” value is recorded as 0.015 in data set [1] (Table S1a, 10^-12 mol/L); 0.005 in data set [1] (Table S5a, 10^-6 mol/L); 0.003 in data set [1] (Table S5a, 10^-7 mol/L); -0.003 in data set [1] (Table S5a, 10^-8 mol/L); 0.005 in data set [5] (Table S1b, 10^-6 mol/L); 0.001 in data set [5] (Table S1b, 10^-7 mol/L). Moreover, the “delta slope (DS), short-term” value in data set [5] (Table S1b, 10^-8 mol/L) was 0.001; in data set [5] (Table S1b, 10^-9 mol/L), -0.001; in data set [5] (Table S1b, 10^-10 mol/L), 0.001; in data set [5] (Table S1b, 10^-11 mol/L), 0.001; in data set [5] (Table S1b, 10^-12 mol/L), 0.002; in data set [5] (Table S5b, 10^-6 mol/L) it was 0.001. Moreover, the IC50 in data set [2] was 1.4 ± 0.6 µM; in data set [4] it was 0.008 ± 0.0002 µM. Besides, the “Cardiotoxicity, HCM” value in data set [5] came out at 0. Besides, the “cytotoxic effect on HCM, result in words” value in data set [5] is reported as “no significant effect was measured”.
“{[^4N-MeSer]-GnRH-III(Dau=Aoa-C)}2 (disulfide) [conjugate 10]”: the “delta slope (DS), short-term” value in data set [1] (Table S4a, 10^-6 mol/L) is given as 0.017; in data set [1] (Table S4a, 10^-7 mol/L), 0.011; in data set [1] (Table S4a, 10^-8 mol/L), 0.008; in data set [5] (Table S4b, 10^-6 mol/L), 0.001; in data set [5] (Table S4b, 10^-7 mol/L) it was -0.001; in data set [5] (Table S4b, 10^-8 mol/L), -0.002. Moreover, the “delta slope (DS), long-term” value in data set [1] (Table S4a, 10^-6 mol/L) was 0.004; in data set [1] (Table S4a, 10^-7 mol/L), 0.002; in data set [1] (Table S4a, 10^-8 mol/L), 0.001; in data set [5] (Table S4b, 10^-6 mol/L), −0.005; in data set [5] (Table S4b, 10^-7 mol/L), −0.003; in data set [5] (Table S4b, 10^-8 mol/L), -0.001. Moreover, the “Cardiotoxicity, HUVEC” value in data set [1] (setting [6]) stood at 0. For the same molecule, the “cytotoxic effect on HUVEC, result in words” value in data set [1] was “completely lost the cytotoxic effect”. In addition, the IC50 in data set [3] was 6.2 ± 1.5 µM; in data set [4], 0.783 ± 0.09 µM.
Consider [GnRH-III(Dau=Aoa-C)]2 [conjugate 9], for which the “delta slope (DS), short-term” value was 0.014 in data set [1] (Table S4a, 10^-6 mol/L); 0.008 in data set [1] (Table S4a, 10^-7 mol/L); 0.001 in data set [1] (Table S4a, 10^-8 mol/L); 0.003 in data set [5] (Table S4b, 10^-6 mol/L); 0.002 in data set [5] (Table S4b, 10^-7 mol/L); -0.001 in data set [5] (Table S4b, 10^-8 mol/L). Also, the “delta slope (DS), long-term” value in data set [1] (Table S4a, 10^-6 mol/L) was 0.001; in data set [1] (Table S4a, 10^-7 mol/L), -0.001; in data set [1] (Table S4a, 10^-8 mol/L), -0.002; in data set [5] (Table S4b, 10^-6 mol/L) it was -0.001; in data set [5] (Table S4b, 10^-7 mol/L), -0.001; in data set [5] (Table S4b, 10^-8 mol/L), -0.002. Moreover, the “Cardiotoxicity, HUVEC” value in data set [1] (setting [6]) is recorded as 0. In data set [1], the “cytotoxic effect on HUVEC, result in words” value was “completely lost the cytotoxic effect”. Besides, the IC50 is 4.1 ± 0.8 µM in data set [3] and 1.69 ± 0.41 µM in data set [4]. The “Cardiotoxicity, HCM” value in data set [5] (setting [6]) is listed as 0. The “cytotoxic effect on HCM, result in words” value in data set [5] (long-term (0–72 h), 10^−8–10^−6 mol/L (free drugs 10^−12–10^−6 mol/L), impedimetry, one-way ANOVA) is on record as “completely lost their cytotoxic effect”.

The values are drawn from article PMC6037002, “Drug targeting to decrease cardiotoxicity – determination of the cytotoxic effect of GnRH-based conjugates containing doxorubicin, daunorubicin and methotrexate on human cardiomyocytes and endothelial cells” (Beilstein Journal of Organic Chemistry, 2018).
